Patent US8394629B2, “Use of vinca alkaloids and salts thereof” (Keio University, priority 2003, dated 2013)

Experiments:
[1] = system: neonatal porcine pancreatic cells; assay: Immunostaining of insulin-producing cells in cultured neonatal porcine pancreatic cells (Experiment example I); format: cell-based, pig; conditions: three weeks culture; nicotinamide 10 mM, HGF 10 ng/ml, conophylline 0.1 μg/ml; FIG. 2
Procedure: Neonatal pigs within 72 hours of birth were obtained from the (Takayama) pig farm. The whole pancreas (ventral and dorsal pancreas) was removed under general anesthesia immediately after animals were brought to the operating room. After elimination of connective tissue covering the removed pancreas and blood adhering to it, the pancreas was transferred to a 10 ml beaker and dissected into small pieces with ophthalmic scissors. The dissected pieces were transferred to a 100 ml conical flask, to which 50 to 60 ml of phosphate buffered saline (PBS) was added. After a 3 min rotation at 110 rpm on a low speed stirrer, the mixture was allowed to stand still and the supernatant was discarded. Then, 40 mL of phosphate buffered saline containing Liberase PI (Roche) at a concentration of 2.5 mg/ml was added. After an 8 min rotation at 110 rpm on a low speed stirrer, the mixture was allowed to stand still and the supernatant containing the cells was collected. The operation was repeated 5 times. The supernatant collected was centrifuged at 1200 rpm for 5 min. to collect cells. The cells collected in the centrifugal sedimentum was suspended in 25 to 50 ml of PBS, 25 ml of cell suspension was overlaid gently on 10 ml of Histopaque 1077 (Sigma), followed by centrifugation at 1800 rpm for 10 min. […]

[2] = system: pancreatic acinar carcinoma AR42J-B13 cells; assay: Morphological change and trypan blue exclusion test of AR42J-B13 cells; format: cell-based, rat
Procedure: (§1) DMEM was sterilized by filtration after its pH was adjusted to 7.4 in the presence of 20 mM HEPES-NaOH. AR42J-B13 cells (endowed by Dr. Itaru Kojima, Institute for Cellular and Molecular Regulation, Gunma University) a highly sensitive subclone of AR42J, were cultured at 37° C. in a 5% CO2 incubator with 20 ml of culture medium DMEM supplemented with 100 mg/l kanamycin, 0.6 g/l glutamine, 100 unit/ml penicillin G, 5 mM NaHCO3, and 10% FBS. To prevent transformation due to a high density of the cells and to retain differentiation ability of the cells, the cells were transferred every 2 to 3 days to maintain 2.5% to 5% of confluency. The cell transfer was performed as follows: After the medium was removed, the cells were washed twice in PBS^− (Ca^2+, Mg^2+-free PBS; 8 g/l, NaCl, 0.2 g/l KCl, 0.916 g/Na2HPO4, 0.2 g/l KH2PO4). Subsequently, the cells were detached using 2 ml of trypsin-EDTA solution, and then trypsin was inactivated by addition of 8 ml of the medium. […]
Cells that had been prepared at a density of 4×10^5 cells/ml were plated at 500 μl per well on 24-well plates, followed by incubation at 37° C. in a 5% CO2 incubator. […] Further, the photograph was enlarged 2.5 times and a morphological change was defined as having occurred when the full length of a cell in the diameter became 1.5 times; thus, the rates of morphological changes were determined.

[3] = system: pancreatic acinar carcinoma AR42J-B13 cells; assay: ELISA quantification of insulin secretion of differentiated AR42J-B13 cells; format: cell-based, rat; conditions: secretion below the detection level
[4] = system: streptozotocin-administered rats; assay: Blood glucose levels of streptozotocin-administered rats; format: in vivo, Wistar rats; conditions: 5 μg/g BW subcutaneously for seven consecutive days from day 1 after streptozotocin; versus control; P<0.05 / P<0.01; FIG. 4
Procedure: Ten 1-day old Wistar rats (purchased from Japan SLC, Shizuoka, Japan) were intraperitoneally injected with streptozotocin (purchased from Wako Pure Chemical Industries, Ltd., dissolved in […] citrate buffer (pH 4.5)) at 85 μg/g BW per rat. Streptozotocin decreases insulin production by destroying pancreatic β cells, thereby inducing diabetes. The day of streptozotocin injection was defined as day 0, Starting from the next day (day 1), five rats were injected subcutaneously with a solution (ethanol) of conophylline at 5 μg/g BW for seven consecutive days and their random blood glucose levels were measured daily. Five rats in the control group received the same volume of solvent (Control).

[5] = system: pancreatic acinar carcinoma AR42 J-B13 cells; conditions: known from prior report; cited from earlier work
[6] = system: pancreatic acinar carcinoma AR42J-B13 cells; assay: Insulin immunofluorescence of AR42J-B13 cells; format: cell-based, rat; conditions: after 72 hours; conophylline 0.1 μg/ml, HGF 100 pM, activin A 2 nM
Procedure: as §1, with “medium. Subsequently, the cell were sedimented by centrifugation at 1000 rpm for 5 min, trypsin was removed, 10 ml of fresh medium was added, and transferred to be 2.5% to 5% of confluency. Cells were cryopreserved under the condition of 7.5% dimethyl sulfoxide (DMSO).” for “medium.”

[7] = system: porcine pancreatic cells; assay: Induction of insulin production in porcine pancreatic cells (statement in the description); format: cell-based, pig; conditions: no conditions given

NC(=O)c1cccnc1 [nicotinamide, reference compound]
insulin-producing cells colored in red (immunostaining) [1]: only a few insulin-producing cells

CC[C@@]12C=CCN3CC[C@]4(C(=C(C(=O)OC)C1)Nc1cc5c(cc14)[C@H]1[C@@H](O5)[C@H](O)[C@]4(CC)CC(C(=O)OC)=C5Nc6c(cc(O)c(OC)c6OC)[C@@]56CCN1[C@H]46)[C@H]32 (stereo in doubt) [conophyllidine]
morphological changes involved in insulin production ([2]; AR42J cells, no concentration given): confirmed to induce morphological changes

CC[C@@]12CC(C(=O)OC)=C3Nc4cc5c(cc4[C@@]34CCN(C[C@H]3O[C@H]31)[C@@H]24)[C@@H]1[C@H](O5)[C@@H](O)[C@@]2(CC)CC(C(=O)OC)=C3Nc4c(cc(O)c(OC)c4OC)[C@@]34CCN1[C@@H]24 [conophylline]
insulin-producing cells colored in red (immunostaining) [1]: only a few insulin-producing cells
process outgrowth (morphological change) ([2]; conophylline 0.1 to 0.3 μg/ml, alone or with HGF): concentration-dependently induced
insulin secretion out of cells [3]: incapable of inducing insulin secretion out of cells
blood glucose levels [4]: apparent decrease in blood glucose levels
insulin production of AR42J cells [5]: induces insulin production
insulin release into culture medium [5]: did not release insulin into culture medium

HGF: Hepatocyte growth factor (HGF), Sigma
red coloration of insulin in cells (immunofluorescence) [6]: no red coloration indicating insulin was observed

B1: Activin: activin A, which belongs to the TGF-β superfamily (protein, UniProt P08476 311-426, looked up)
Inhibin beta A chain: GLECDGKVNICCKKQFFVSFKDIGWNDWIIAPSGYHANYCEGECPSHIAGTSGSSLSFHSTVINHYRMRGHSPFANLKSCCVPTKLRPMSMLYYDDGQNIIKKDIQNMIVEECGCS
inducing insulin production of porcine pancreatic cells [7]: does not exhibit the effect
insulin production of AR42J cells [5]: capable of inducing AR42J cells to produce insulin
